Patent publication US20020137929A1, “1 - (3-heterocyclylphenyl) isothiourea, -isourea, -guanidine and -amidine herbicidal agents” (Intellectual Property Department, BASF Aktiengesellschaft, priority 1998, published 2002)

Assays:
[1] = test system: TRZAWR (Wheat, Winter, cv Riband); experiment: Preemergence herbicidal evaluation; format: in vivo, Triticum aestivum; conditions: rated 4-5 weeks after treatment; for TRZAWR rating: preemergence, 0-9 scale
Outline: (§1)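 Scores (0–9) reflect visual comparison with control plants for stand, vigor, malformation, size and chlorosis. Compound was applied to the soil after sowing, before emergence, as an aqueous acetone spray (about 0.0156–0.500 kg/ha), and cups were kept in a greenhouse for 4–5 weeks.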

[2] = test system: ORYSAT (Rice, Tebonnet); experiment: Preemergence herbicidal evaluation; format: in vivo, Oryza sativa, (L.) Tebonnet; conditions: rated 4-5 weeks after treatment; for ORYSAT rating: preemergence, 0-9 scale
Outline: as §1

[3] = test system: MOOVA (Monochoria); experiment: Postemergence weed control under flooded paddy conditions; format: in vivo, Monochoria vaginalis; conditions: postemergence weeds
Outline: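 Containers holding 3–5 cm weeds and rice at 1.5–2.5 leaves are flooded to 1.5–3 cm above soil. Compound in 50/50 v/v aqueous/acetone is then added directly to the water, about 0.0313–0.500 kg/ha. Plants are kept in the greenhouse and rated 0–9 visually at 3–4 weeks.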

[4] = test system: GLXMAW (Soybean, Williams); experiment: Preemergence herbicidal evaluation; format: in vivo, Glycine max, (L.) Merr. cv Williams; conditions: rated 4-5 weeks after treatment; for GLXMAW rating: preemergence, 0-9 scale
Outline: as §1

[5] = test system: ORYSAT (Rice, Tebonnet); experiment: Rice tolerance to post-transplant applications, flooded paddy conditions (Table III); format: in vivo, Oryza sativa, (L.) Tebonnet
Outline: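 Two ten-day-old Tebonnet seedlings transplanted into flooded silt loam (water 1.5 to 3 cm above soil); three days later the water surface was treated with compound in aqueous/acetone 50/50 at about 0.0313 to 0.500 kg/ha. Visual 0-9 injury rating versus control after three to four weeks in greenhouse.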

[6] = test system: SAGPY (Arrowhead (Pygmaea)); experiment: Preemergence weed control under flooded paddy conditions; format: in vivo, Sagittaria pygmaea; conditions: rated 3-4 weeks after treatment
Outline: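 Values are visual 0-9 scores against a control for a preemergence application into paddy flood water at about 0.0313 to 0.500 kg/ha. Greenhouse duration was three to four weeks.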

[7] = test system: CASOB (Sicklepod); experiment: Postemergence herbicidal evaluation; format: in vivo, Cassia obtusifolia; conditions: for CASOB herbicidal rating: postemergence
Outline: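 First, seedlings were raised for around two weeks. Next, test material in 50/50 acetone/water containing 0.5% TWEEN 20 was sprayed through a nozzle at 40 psi, equivalent to about 0.0156–0.500 kg/ha. Finally, after 4–5 weeks in the greenhouse, plants were rated 0–9.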

[8] = test system: ORYSAT (Rice, Tebonnet); experiment: Rice tolerance to post-transplant applications, flooded paddy conditions (Table IV); format: in vivo, Oryza sativa, (L.) Tebonnet
Excerpt: Results of herbicide evaluation are expressed on a rating scale (0-9). The scale is based upon a visual observation of plant stand, vigor, malformation, size, chlorosis and overall plant appearance as compared with a control.
Plastic containers containing weeds which are 3 to 5 cm tall and rice seedlings at the 1.5 to 2.5 leaf stage are flooded with water. The water is maintained at 1.5 to 3 cm above the soil surface for the duration of the experiment. Test compounds are applied as aqueous/ acetone mixtures 50/50 v/v directly into the flood water to provide the equivalent of about 0.0313 to 0.500 kg/ha of active ingredient. The treated containers are placed on greenhouse benches and cared for in accordance with conventional greenhouse procedures. Three to four weeks after treatment, the test is terminated and each container is examined and herbicidal effect rated according to the rating system provided in Example 37. The compounds evaluated are reported by compound number given in Example 37.

[9] = Rate 0.0313 kg/ha, rated 3 to 4 weeks after treatment
[10] = Rate 0.0625 kg/ha, rated 3 to 4 weeks after treatment
[11] = Rate 0.1250 kg/ha, rated 3 to 4 weeks after treatment
[12] = Rate 0.2500 kg/ha, rated 3 to 4 weeks after treatment
[13] = 0.0313 kg/ha, post-transplant rice, flooded paddy, rated 3-4 weeks after treatment
[14] = 0.0625 kg/ha, post-transplant rice, flooded paddy, rated 3-4 weeks after treatment
[15] = 0.1250 kg/ha, post-transplant rice, flooded paddy, rated 3-4 weeks after treatment
[16] = 0.2500 kg/ha, post-transplant rice, flooded paddy, rated 3-4 weeks after treatment
[17] = Rate 0.0313 kg/ha, flooded paddy, post-transplant rice, rated 3 to 4 weeks after treatment
[18] = Rate 0.0625 kg/ha, flooded paddy, post-transplant rice, rated 3 to 4 weeks after treatment
[19] = Rate 0.1250 kg/ha, flooded paddy, post-transplant rice, rated 3 to 4 weeks after treatment
[20] = Rate 0.2500 kg/ha, flooded paddy, post-transplant rice, rated 3 to 4 weeks after treatment

## CN1C(=O)C(CC(=O)OCCF)SC1=Nc1cc(-n2c(=O)cc(C(F)(F)F)n(C)c2=O)c(F)cc1Cl (stereo not drawn) [Compound 93, 2-Fluoroethyl 2-{{2-chloro-5-[3,6-dihydro-3-methyl-2,6-dioxo-4-(trifluoromethyl)-1(2H)-pyrimidinyl]-4-fluorophenyl}imino}-3-methyl-4-oxo-5-thiazolidineacetate]
[1]; 0.0313 kg/ha
  TRZAWR rating: 0.0
[1]; 0.0625 kg/ha
  TRZAWR rating: 0.0
[1]; 0.1250 kg/ha
  TRZAWR rating: 2.0
[1]; 0.2500 kg/ha
  TRZAWR rating: 7.0
[2]; 0.0313 kg/ha
  ORYSAT rating: 0.0
[2]; 0.0625 kg/ha
  ORYSAT rating: 0.0
[2]; 0.1250 kg/ha
  ORYSAT rating: 2.0
[2]; 0.2500 kg/ha
  ORYSAT rating: 4.0
[3]; [9]
  Herbicidal rating MOOVA: 9.0
[3]; [10]
  Herbicidal rating MOOVA: 9.0
[3]; [11]
  Herbicidal rating MOOVA: 9.0
[3]; [12]
  Herbicidal rating MOOVA: 9.0
[4]; 0.0313 kg/ha
  GLXMAW rating: 0.0
[4]; 0.0625 kg/ha
  GLXMAW rating: 0.0
[4]; 0.1250 kg/ha
  GLXMAW rating: 4.0
[4]; 0.2500 kg/ha
  GLXMAW rating: 8.0
[5]; [13]
  ORYSAT herbicidal effect rating (rice tolerance): 0.0
[5]; [14]
  ORYSAT herbicidal effect rating (rice tolerance): 0.0
[5]; [15]
  ORYSAT herbicidal effect rating (rice tolerance): 0.0
[5]; [16]
  ORYSAT herbicidal effect rating (rice tolerance): 3.0
[6]; 0.0313 kg/ha
  SAGPY herbicidal effect rating: 0.0
[6]; 0.0625 kg/ha
  SAGPY herbicidal effect rating: 0.0
[6]; 0.1250 kg/ha
  SAGPY herbicidal effect rating: 3.0
[6]; 0.2500 kg/ha
  SAGPY herbicidal effect rating: 9.0
[7]; rate 0.0158 kg/ha
  CASOB herbicidal rating: 0.0
[7]; rate 0.0315 kg/ha
  CASOB herbicidal rating: 1.0
[7]; rate 0.0630 kg/ha
  CASOB herbicidal rating: 2.0
[8]; [17]
  Herbicidal rating ORYSAT (rice tolerance): 0.0
[8]; [18]
  Herbicidal rating ORYSAT (rice tolerance): 0.0
[8]; [19]
  Herbicidal rating ORYSAT (rice tolerance): 0.0
[8]; [20]
  Herbicidal rating ORYSAT (rice tolerance): 3.0

## CCOC(=O)CN1C(=O)C(=Cc2ccccc2)SC1=Nc1cc(-n2c(=O)cc(C(F)(F)F)n(C)c2=O)c(F)cc1Cl [Compound 19, Ethyl 5-benzylidene-2-{{2-chloro-5-[3,6-dihydro-3-methyl-2,6-dioxo-4-(trifluoromethyl)-1(2H)-pyrimidinyl]-4-fluorophenyl}imino}-4-oxo-3-thiazolidineacetate]
[1]; rate 0.1250 kg/ha
  TRZAWR preemergence herbicidal rating: 0.0
[1]; rate 0.2500 kg/ha
  TRZAWR preemergence herbicidal rating: 0.0
[2]; rate 0.1250 kg/ha
  ORYSAT preemergence herbicidal rating: 0.0
[2]; rate 0.2500 kg/ha
  ORYSAT preemergence herbicidal rating: 0.0
[3]; rate 0.1160 kg/ha, 3-4 weeks after treatment
  Herbicidal rating MOOVA: 9.0
[3]; rate 0.2310 kg/ha, 3-4 weeks after treatment
  Herbicidal rating MOOVA: 9.0
[3]; rate 0.4630 kg/ha, 3-4 weeks after treatment
  Herbicidal rating MOOVA: 9.0
[4]; rate 0.1250 kg/ha
  GLXMAW preemergence herbicidal rating: 0.0
[4]; rate 0.2500 kg/ha
  GLXMAW preemergence herbicidal rating: 0.0
[5]; in vivo
  Herbicidal rating ORYSAT (rice tolerance): 3.0
[6]; 0.1160 kg/ha
  Herbicidal rating SAGPY: 0.0
[6]; 0.2310 kg/ha
  Herbicidal rating SAGPY: 3.0
[6]; 0.4630 kg/ha
  Herbicidal rating SAGPY: 3.0
[7]; rate 0.0158 kg/ha
  CASOB herbicidal rating: 0.0
[7]; rate 0.0315 kg/ha
  CASOB herbicidal rating: 1.0
[7]; rate 0.0630 kg/ha
  CASOB herbicidal rating: 1.0
[8]; in vivo
  Herbicidal rating ORYSAT (rice tolerance): 3.0

## CN1C(=O)C(CC(=O)O)SC1=Nc1cc(-n2c(=O)cc(C(F)(F)F)n(C)c2=O)c(F)cc1Cl (stereo not drawn) [Compound 63, 2-{{2-Chloro-5-[3,6-dihydro-3-methyl-2,6-dioxo-4-(trifluoromethyl)-1(2H)-pyrimidinyl]-4-fluoro-phenyl}imino}-3-methyl-4-oxo-5-thiazolidineacetic acid]
[1]; rate 0.0156 kg/ha
  Preemergence herbicidal rating TRZAWR: 0.0
[1]; rate 0.0313 kg/ha
  Preemergence herbicidal rating TRZAWR: 0.0
[1]; rate 0.0625 kg/ha
  Preemergence herbicidal rating TRZAWR: 1.0
[1]; rate 0.1250 kg/ha
  Preemergence herbicidal rating TRZAWR: 6.0
[1]; rate 0.2500 kg/ha
  Preemergence herbicidal rating TRZAWR: 7.0
[2]; rate 0.0156 kg/ha
  Preemergence herbicidal rating ORYSAT: 0.0
[2]; rate 0.0313 kg/ha
  Preemergence herbicidal rating ORYSAT: 0.0
[2]; rate 0.0625 kg/ha
  Preemergence herbicidal rating ORYSAT: 5.0
[2]; rate 0.1250 kg/ha
  Preemergence herbicidal rating ORYSAT: 7.0
[2]; rate 0.2500 kg/ha
  Preemergence herbicidal rating ORYSAT: 7.0
[3]; [9]
  Herbicidal rating MOOVA: 9.0
[3]; [10]
  Herbicidal rating MOOVA: 9.0
[3]; [11]
  Herbicidal rating MOOVA: 9.0
[3]; [12]
  Herbicidal rating MOOVA: 9.0
[4]; rate 0.0156 kg/ha
  Preemergence herbicidal rating GLXMAW: 0.0
[4]; rate 0.0313 kg/ha
  Preemergence herbicidal rating GLXMAW: 1.0
[4]; rate 0.0625 kg/ha
  Preemergence herbicidal rating GLXMAW: 4.0
[4]; rate 0.1250 kg/ha
  Preemergence herbicidal rating GLXMAW: 6.0
[4]; rate 0.2500 kg/ha
  Preemergence herbicidal rating GLXMAW: 7.0
[5]; in vivo
  ORYSAT herbicidal effect rating (rice tolerance): 3.0
[6]; 0.0313 kg/ha
  SAGPY herbicidal effect rating: 4.0
[6]; 0.0625 kg/ha
  SAGPY herbicidal effect rating: 7.0
[6]; 0.1250 kg/ha
  SAGPY herbicidal effect rating: 9.0
[6]; 0.2500 kg/ha
  SAGPY herbicidal effect rating: 9.0
[7]; Rate 0.0158 kg/ha
  Postemergence herbicidal rating CASOB: 0.0
[7]; Rate 0.0315 kg/ha
  Postemergence herbicidal rating CASOB: 3.0
[7]; Rate 0.0630 kg/ha
  Postemergence herbicidal rating CASOB: 5.0
[8]; in vivo
  Herbicidal rating ORYSAT (rice tolerance): 3.0

## C=CCN1C(=O)C(CC(=O)OCCF)SC1=Nc1cc(-n2c(=O)cc(C(F)(F)F)n(C)c2=O)c(F)cc1Cl (stereo not drawn) [Compound 86, 2-Fluoroethyl 3-allyl-2-{{2-chloro-5-[3,6-dihydro-3-methyl-2,6-dioxo-4-(trifluoromethyl)-1(2H)-pyrimidinyl]-4-fluorophenyl}imino}-4-oxo-5-thiazolidineacetate]
[1]; 0.0156 kg/ha
  TRZAWR rating: 0.0
[1]; 0.0313 kg/ha
  TRZAWR rating: 0.0
[1]; 0.0625 kg/ha
  TRZAWR rating: 0.0
[1]; 0.1250 kg/ha
  TRZAWR rating: 0.0
[1]; 0.2500 kg/ha
  TRZAWR rating: 2.0
[1]; 0.5000 kg/ha
  TRZAWR rating: 6.0
[2]; 0.0156 kg/ha
  ORYSAT rating: 0.0
[2]; 0.0313 kg/ha
  ORYSAT rating: 0.0
[2]; 0.0625 kg/ha
  ORYSAT rating: 0.0
[2]; 0.1250 kg/ha
  ORYSAT rating: 0.0
[2]; 0.2500 kg/ha
  ORYSAT rating: 2.0
[2]; 0.5000 kg/ha
  ORYSAT rating: 6.0
[3]; [9]
  Herbicidal rating MOOVA: 9.0
[3]; [10]
  Herbicidal rating MOOVA: 9.0
[3]; [11]
  Herbicidal rating MOOVA: 9.0
[3]; [12]
  Herbicidal rating MOOVA: 9.0
[4]; 0.0156 kg/ha
  GLXMAW rating: 0.0
[4]; 0.0313 kg/ha
  GLXMAW rating: 0.0
[4]; 0.0625 kg/ha
  GLXMAW rating: 0.0
[4]; 0.1250 kg/ha
  GLXMAW rating: 0.0
[4]; 0.2500 kg/ha
  GLXMAW rating: 4.0
[4]; 0.5000 kg/ha
  GLXMAW rating: 8.0
[5]; [13]
  ORYSAT herbicidal effect rating (rice tolerance): 3.0
[5]; [14]
  ORYSAT herbicidal effect rating (rice tolerance): 4.0
[5]; [15]
  ORYSAT herbicidal effect rating (rice tolerance): 4.0
[5]; [16]
  ORYSAT herbicidal effect rating (rice tolerance): 5.0
[6]; 0.0313 kg/ha
  SAGPY herbicidal effect rating: 5.0
[6]; 0.0625 kg/ha
  SAGPY herbicidal effect rating: 9.0
[6]; 0.1250 kg/ha
  SAGPY herbicidal effect rating: 9.0
[6]; 0.2500 kg/ha
  SAGPY herbicidal effect rating: 9.0
[7]; rate 0.0156 kg/ha
  CASOB herbicidal rating: 1.0
[7]; rate 0.0313 kg/ha
  CASOB herbicidal rating: 2.0
[7]; rate 0.0625 kg/ha
  CASOB herbicidal rating: 7.0
[7]; rate 0.1250 kg/ha
  CASOB herbicidal rating: 9.0
[8]; [17]
  Herbicidal rating ORYSAT (rice tolerance): 3.0
[8]; [18]
  Herbicidal rating ORYSAT (rice tolerance): 4.0
[8]; [19]
  Herbicidal rating ORYSAT (rice tolerance): 4.0
[8]; [20]
  Herbicidal rating ORYSAT (rice tolerance): 5.0
